Experimental data: ChEMBL document CHEMBL5505992, “Novel membrane-targeting isoxanthohumol-amine conjugates for combating methicillin-resistant Staphylococcus aureus (MRSA) infections” (Eur J Med Chem, 2024)
Activity calls are given as the source filed them. The calls are words filed in the database; no cut-off is given here.

Experiments:
Staphylococcus aureus [1] = assay: Antibacterial activity against methicillin-resistant Staphylococcus aureus infected in Kunming mouse skin infection model assessed as smooth dorsal skin at 8 mg/kg,sc measured after 24 hrs; assay type: functional, organism-based
Staphylococcus aureus [2] = assay: Antibacterial activity against methicillin-resistant Staphylococcus aureus clinical isolate MRSA-23 measured after 16 to 18 hrs by CLSI method; assay type: functional; details: time 16-18 hrs
Staphylococcus aureus [3] = assay: Antibacterial activity against Staphylococcus aureus ATCC 29213 measured after 16 to 18 hrs by CLSI method; assay type: functional; details: time 16-18 hrs
Staphylococcus aureus [4] = assay: Antibacterial activity against methicillin-resistant Staphylococcus aureus in presence of phosphatidylglycerol; assay type: functional, organism-based
Staphylococcus aureus [5] = assay: Bactericidal activity against Staphylococcus aureus ATCC 29213 assessed as bacterial killing at 8 times MIC measured within 0.5 to 1 hrs by time kill assay relative to control; assay type: functional; details: time 0.5-1 hrs
Cell membrane [6] = assay: Induction of cell membrane permeability in methicillin-resistant Staphylococcus aureus clinical isolate MRSA-16 assessed as increase in damaged cells (Q2 region) at 8 ug/ml incubated for 2 hrs by SYTO 9 and PI staining based flow cytometry analysis (reference value: 0.91%); assay type: cell membranes; details: dose 8.0 µg/ml
[7] = Toxicity in Kunming mouse assessed as effect on lung at 4 to 8 mg/kg, sc measured after 24 hrs by H and E staining based analysis; assay type: organism-based; details: in vivo, dose 4-8 mg/kg
Staphylococcus aureus [8] = assay: Bactericidal activity against methicillin-resistant Staphylococcus aureus clinical isolate MRSA-16 assessed as bacterial killing measured upto 8 hrs by time kill assay; assay type: functional, organism-based
Staphylococcus aureus [9] = assay: Antibacterial activity against methicillin-resistant Staphylococcus aureus clinical isolate MRSA-21 measured after 16 to 18 hrs by CLSI method; assay type: functional; details: time 16-18 hrs
Cell membrane [10] = assay: Induction of cell membrane permeability in methicillin-resistant Staphylococcus aureus clinical isolate MRSA-16 assessed as increase in damaged cells (Q2 region) at 4 ug/ml incubated for 2 hrs by SYTO 9 and PI staining based flow cytometry analysis (reference value: 0.91%); assay type: cell membranes; details: dose 4.0 µg/ml
Staphylococcus aureus [11] = assay: Antibacterial activity against methicillin-resistant Staphylococcus aureus infected in Kunming mouse skin infection model assessed as reduction in inflammatory cells at 4 to 8 mg/kg,sc measured after 24 hrs; assay type: functional, organism-based; details: dose 4-8 mg/kg
Staphylococcus aureus [12] = assay: Antibacterial activity against methicillin-resistant Staphylococcus aureus clinical isolate MRSA-20 measured after 16 to 18 hrs by CLSI method; assay type: functional; details: time 16-18 hrs
[13] = Toxicity in Kunming mouse assessed as effect on kidney at 10 mg/kg, sc measured after 24 hrs by H and E staining based analysis; assay type: organism-based; details: in vivo
[14] = Toxicity in Kunming mouse assessed as effect on liver at 4 to 8 mg/kg, sc measured after 24 hrs by H and E staining based analysis; assay type: organism-based; details: in vivo, dose 4-8 mg/kg
Cell membrane [15] = assay: Induction of cell membrane permeability in methicillin-resistant Staphylococcus aureus clinical isolate MRSA-16 assessed as dead cells (Q1 region) at 64 ug/ml incubated for 2 hrs by SYTO 9 and PI staining based flow cytometry analysis (reference value: 0.00%); assay type: cell membranes; details: dose 64.0 µg/ml
[16] = Selectivity index, ratio of HC50 for hemolytic activity in sheep erythrocytes to MIC for antibacterial activity against Staphylococcus aureus ATCC 29213; assay type: toxicity, cell-based; details: read-out: Selectivity Index
Cell membrane [17] = assay: Induction of cell membrane permeability in methicillin-resistant Staphylococcus aureus clinical isolate MRSA-16 assessed as dead cells (Q1 region) at 16 ug/ml incubated for 2 hrs by SYTO 9 and PI staining based flow cytometry analysis (reference value: 0.00%); assay type: cell membranes; details: dose 16.0 µg/ml
Staphylococcus aureus [18] = assay: Antibacterial activity against methicillin-resistant Staphylococcus aureus infected in Kunming mouse skin infection model assessed as decrease in bacterial load at 4 mg/kg,sc measured after 24 hrs relative to control; assay type: functional; design: scale not given: the % may be the effect or the level left
Staphylococcus aureus [19] = assay: Antibacterial activity against methicillin-resistant Staphylococcus aureus clinical isolate MRSA-17 measured after 16 to 18 hrs by CLSI method; assay type: functional; details: time 16-18 hrs
Cell membrane [20] = assay: Induction of cell membrane depolarization in methicillin-resistant Staphylococcus aureus clinical isolate MRSA-16 assessed as fold increase in fluorescence intensity at 32 ug/ml measured every 2 mins for 20 mins by DISC3(5) staining based analysis; assay type: cell membranes; details: dose 32.0 µg/ml
Staphylococcus aureus [21] = assay: Antibacterial activity against methicillin-resistant Staphylococcus aureus clinical isolate MRSA-22 measured after 16 to 18 hrs by CLSI method; assay type: functional; details: time 16-18 hrs
Cell membrane [22] = assay: Induction of cell membrane permeability in methicillin-resistant Staphylococcus aureus clinical isolate MRSA-16 assessed as decrease in intact cells (Q3 region) at 16 ug/ml incubated for 2 hrs by SYTO 9 and PI staining based flow cytometry analysis (reference value: 99.07%); assay type: cell membranes; design: scale not given: the % may be the effect or the level left; details: dose 16.0 µg/ml
Cell membrane [23] = assay: Disruption of cell membrane in methicillin-resistant Staphylococcus aureus clinical isolate MRSA-16 assessed as increase in intracellular DNA leakage incubated for 4 hrs by microspectrophotometer analysis; assay type: cell membranes
[24] = Toxicity in Kunming mouse assessed as survival rate at 40 mg/kg, sc measured after 24 hrs relative to control; assay type: organism-based; details: in vivo
[25] = Toxicity in Kunming mouse assessed as animal death at 5 to 10 mg/kg, sc measured after 24 hrs; assay type: organism-based; details: in vivo, dose 5-10 mg/kg
[26] = Toxicity in Kunming mouse assessed as redness in back of skin at 20 mg/kg, sc measured after 24 hrs; assay type: organism-based; details: in vivo
Cell membrane [27] = assay: Induction of cell membrane depolarization in methicillin-resistant Staphylococcus aureus clinical isolate MRSA-16 assessed as increase in fluorescence intensity measured after 10 mins by DISC3(5) staining based analysis; assay type: cell membranes; details: dose 8-32 µg/ml
Staphylococcus aureus [28] = assay: Antibacterial activity against methicillin-resistant Staphylococcus aureus clinical isolate MRSA-16 measured after 16 to 18 hrs by CLSI method; assay type: functional; details: time 16-18 hrs
Staphylococcus aureus [29] = assay: Antibacterial activity against methicillin-resistant Staphylococcus aureus infected in Kunming mouse skin infection model assessed as effect on skin lesions in subcutaneous tissue at 8 mg/kg,sc measured after 24 hrs; assay type: functional, organism-based
[30] = Toxicity in Kunming mouse assessed as effect on lung at 10 mg/kg, sc measured after 24 hrs by H and E staining based analysis; assay type: organism-based; details: in vivo
Staphylococcus aureus [31] = assay: Antibacterial activity against methicillin-resistant Staphylococcus aureus infected in Kunming mouse skin infection model assessed as appearance of small number of infiltrated inflammatory cells in subcutaneous tissue at 8 mg/kg,sc measured after 24 hrs; assay type: functional, organism-based
[32] = Toxicity in Kunming mouse assessed as adverse effect at 5 to 10 mg/kg, sc measured after 24 hrs; assay type: organism-based; details: in vivo, dose 5-10 mg/kg
[33] = Toxicity in Kunming mouse assessed as histopathological abnormalities in lung at 10 mg/kg, sc measured after 24 hrs by H and E staining based analysis; assay type: organism-based; details: in vivo
Staphylococcus aureus [34] = assay: Antibacterial activity against methicillin-resistant Staphylococcus aureus in presence of peptidoglycan; assay type: functional
Staphylococcus aureus [35] = assay: Antibacterial activity against methicillin-resistant Staphylococcus aureus infected in Kunming mouse skin infection model assessed as effect on skin abscesses at 4 mg/kg,sc measured after 24 hrs; assay type: functional, organism-based
Staphylococcus aureus [36] = assay: Bactericidal activity against Staphylococcus aureus ATCC 29213 assessed as bacterial killing measured upto 8 hrs by time kill assay; assay type: functional, organism-based
Cell membrane [37] = assay: Induction of cytoplasmic membrane depolarization in methicillin-resistant Staphylococcus aureus clinical isolate MRSA-16 assessed as fold increase in fluorescence intensity at 32 ug/ml measured every 2 mins for 20 mins by SYTOX green staining based analysis; assay type: cell membranes; details: dose 32.0 µg/ml

In the case of CCCC[N+](C)(CCCC)CCCCCOc1ccc(C2CC(=O)c3c(OC)cc(OCCCCC[N+](C)(CCCC)CCCC)c(CC=C(C)C)c3O2)cc1.[I-].[I-] (configuration not stated), the Activity (Staphylococcus aureus [1]) was “Active”, the MIC (Staphylococcus aureus [2]) was 0.25 µg/mL and the MIC (Staphylococcus aureus [3]) was 1 µg/mL. The Activity (Staphylococcus aureus [4]) was “Active”, the Activity (Staphylococcus aureus [5]) was 100% and the Activity (Cell membrane [6]) was 57.4%. The Activity [7] was “Non-Toxic”, the Activity (Staphylococcus aureus [8]) was “Dose-Dependent Effect” and the MIC (Staphylococcus aureus [9]) was 0.25 µg/mL. For the same compound, the Activity (Cell membrane [10]) was 38.6%, the Activity (Staphylococcus aureus [11]) was “Active” and the MIC (Staphylococcus aureus [12]) was 0.5 µg/mL. The Activity [13] was “Non-Toxic”, the Activity [14] was “Non-Toxic” and the Activity (Cell membrane [15]) was 100%. The selectivity ratio [16] was > 1280, the Activity (Cell membrane [17]) was 28.4% and the Activity (Staphylococcus aureus [18]) was 99.86%. The MIC (Staphylococcus aureus [19]) was 0.25 µg/mL, the fold change (FC) (Cell membrane [20]) was 4.5 and the MIC (Staphylococcus aureus [21]) was 1 µg/mL. The Activity (Cell membrane [22]) was 1.58%, the Activity (Cell membrane [23]) was “Active” and the survival at 24 h [24] was 80%. For the same compound, the Activity [25] was “Non-Toxic”, the Activity [26] was “Toxic” and the Activity (Cell membrane [27]) was “Dose-Dependent Effect”. The MIC (Staphylococcus aureus [28]) was 0.25 µg/mL, the Activity (Staphylococcus aureus [29]) was “inactive” and the Activity [30] was “Non-Toxic”. For the same compound, the Activity (Staphylococcus aureus [31]) was “Active”, the Activity [32] was “Non-Toxic” and the Activity [33] was “Non-Toxic”. The MIC (Staphylococcus aureus [34]) was 32 µg/mL, the Activity (Staphylococcus aureus [35]) was “Active” and the Activity (Staphylococcus aureus [36]) was “Dose-Dependent Effect”. For the same compound, the fold change (FC) (Cell membrane [37]) was 7.
